Values joined by “and” are separate entries in the source; they are usually repeats but may differ in a detail not shown here. Identical values can stand only once.
How the values were obtained:
[1] = molecular target: T1, TYK2 (Homo sapiens, UniProt P29597); assay: TYK2 Ki determination assay (kinase tracer 236 binding); conditions: binding experiment, 50 nM kinase tracer 236; read-out: Ki against TYK2
T1 construct: purchased Carna Biosciences 09CBS-0983D
Description: TYK2 (Carna Biosciences, 09CBS-0983D) was used at a final concentration of 5 nM. The binding experiment was performed in 50 mM Hepes pH 7.5, 0.01% Brij-35, 10 mM MgCl2, 1 mM EGTA using 50 nM kinase tracer 236 (Invitrogen, PV5592) and 2 nM Eu-anti-GST (Invitrogen, PV5594) with varying compound concentrations. Detection of tracer was performed according to the manufacturers’ procedure.

[2] = test system: CTLL2 (ATCC TIB-214); assay: CTLL2 viability assay; format: cell-based; conditions: IL2-dependent viability, ATP-lite, individual determinations
Description: The protocol describes the methods to analyse the activity of compounds on the ability to sustain the IL2-dependent viability of CTLL2 (ATCC TIB-214).
Negative control is a DMSO dilution, positive control at 10 μM. Final DMSO concentration is 0.1%.

[3] = molecular target: T2, Recombinant human JAK3 catalytic domain (Homo sapiens, UniProt P52333); assay: JAK3 inhibition assay (polyGT substrate); format: biochemical; conditions: 1 μM ATP, individual determinations, read-out: IC50 against JAK3
T2 construct: Recombinant human JAK3 catalytic domain (amino acids 781-1124; catalog number PV3855); purchased Invitrogen PV3855
Description: Recombinant human JAK3 catalytic domain (amino acids 781-1124; catalog number PV3855) was purchased from Invitrogen. 0.5 ng JAK3 protein was incubated with 2.5 μg polyGT substrate (Sigma catalog number P0275) in kinase reaction buffer (25 mM Tris pH 7.5, 0.5 mM EGTA, 10 mM MgCl2, 2.5 mM DTT, 0.5 mM Na3VO4, 5 mM b-glycerolphosphate, 0.01% Triton X-100, 1 μM non-radioactive ATP, 0.25 μCi ^33P-gamma-ATP (GE Healthcare, catalog number AH9968) final concentrations) with or without 5 μL containing test compound or vehicle (DMSO, 1% final concentration), in a total volume of 25 μL, in a polypropylene 96-well plate (Greiner, V-bottom). […]
6005177) using a cell harvester (Perkin Elmer). […] 40 μL/well of Microscint-20 was added, the top of the plates was sealed and readout was performed using the Topcount (Perkin Elmer). Kinase activity was calculated by subtracting counts per min (cpm) obtained in the presence of a positive control inhibitor (10 μM staurosporine) from cpm obtained in the presence of vehicle. The ability of a test compound to inhibit this activity was determined as:
Percentage inhibition=((cpm determined for sample with test compound present−cpm determined for sample with positive control inhibitor) divided by (cpm determined in the presence of vehicle−cpm determined for sample with positive control inhibitor))*100. […]

T2 sequence (P52333 781-1124): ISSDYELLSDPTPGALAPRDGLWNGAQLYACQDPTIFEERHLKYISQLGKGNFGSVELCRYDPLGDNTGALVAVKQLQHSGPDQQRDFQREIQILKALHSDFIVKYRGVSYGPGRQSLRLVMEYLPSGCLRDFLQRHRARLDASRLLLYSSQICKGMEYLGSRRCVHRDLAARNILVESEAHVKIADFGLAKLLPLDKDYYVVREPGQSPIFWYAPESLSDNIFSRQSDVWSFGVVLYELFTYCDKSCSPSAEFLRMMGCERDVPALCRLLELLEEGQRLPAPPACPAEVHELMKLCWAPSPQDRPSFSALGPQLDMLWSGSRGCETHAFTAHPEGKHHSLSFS
T1 sequence (P29597 whole entry): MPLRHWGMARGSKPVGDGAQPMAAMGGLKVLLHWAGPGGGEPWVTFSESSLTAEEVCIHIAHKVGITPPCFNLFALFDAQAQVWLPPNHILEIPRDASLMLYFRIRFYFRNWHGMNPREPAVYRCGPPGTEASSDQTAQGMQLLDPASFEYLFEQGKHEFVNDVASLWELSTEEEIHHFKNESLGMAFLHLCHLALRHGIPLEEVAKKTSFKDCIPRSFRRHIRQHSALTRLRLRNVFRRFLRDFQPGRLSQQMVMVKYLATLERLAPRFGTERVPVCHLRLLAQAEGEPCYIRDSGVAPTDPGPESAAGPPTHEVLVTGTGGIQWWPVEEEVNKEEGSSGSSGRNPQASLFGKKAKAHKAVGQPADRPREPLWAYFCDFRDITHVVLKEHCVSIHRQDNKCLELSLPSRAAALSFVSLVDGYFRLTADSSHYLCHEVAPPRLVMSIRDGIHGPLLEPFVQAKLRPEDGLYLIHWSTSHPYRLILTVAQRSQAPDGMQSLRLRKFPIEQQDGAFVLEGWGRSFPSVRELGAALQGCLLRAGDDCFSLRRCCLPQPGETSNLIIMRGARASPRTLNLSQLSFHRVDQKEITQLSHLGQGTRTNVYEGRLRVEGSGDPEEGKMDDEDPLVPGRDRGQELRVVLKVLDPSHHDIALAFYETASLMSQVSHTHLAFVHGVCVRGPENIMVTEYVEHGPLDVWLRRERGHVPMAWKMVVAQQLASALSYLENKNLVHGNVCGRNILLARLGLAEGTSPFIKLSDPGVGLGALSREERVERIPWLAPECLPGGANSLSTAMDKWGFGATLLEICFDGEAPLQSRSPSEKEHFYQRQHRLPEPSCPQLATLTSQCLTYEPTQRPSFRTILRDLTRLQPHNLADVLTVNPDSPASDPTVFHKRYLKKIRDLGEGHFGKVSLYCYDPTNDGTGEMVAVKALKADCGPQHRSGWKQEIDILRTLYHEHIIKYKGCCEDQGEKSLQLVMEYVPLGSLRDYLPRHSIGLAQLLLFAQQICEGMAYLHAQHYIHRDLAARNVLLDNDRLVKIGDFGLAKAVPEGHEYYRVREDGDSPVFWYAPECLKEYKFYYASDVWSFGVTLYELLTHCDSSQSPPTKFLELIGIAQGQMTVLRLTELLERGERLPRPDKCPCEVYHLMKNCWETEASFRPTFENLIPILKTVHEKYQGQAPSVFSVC

CCc1cc(C2CN(S(C)(=O)=O)C2)ncc1N(C)c1cc2c(cn1)ncn2C [Compound 1, [4-Ethyl-6-(1-methanesulfonyl-azetidin-3-yl)-pyridin-3-yl]-methyl-(1-methyl-1H-imidazo[4,5-d]pyridin-6-yl)-amine]
Ki [1]: 336 nM | IC50 ([2]; 24 h, listed as compound of the invention): 3790 nM | IC50 ([2]; Mus musculus, CTLL-2, 24 h): 7390 nM | IC50 [3]: 1320 nM and 523 nM and 460 nM and 345 nM and 689 nM and 685 nM and 515 nM and 324 nM and 537 nM
